Laboratory results from patent US7232837B2, “Stereoisomers with high affinity for adrenergic receptors” (McNeil-PPC, Inc., priority 1999, dated 2007).

Key:
Swiss-Webster mice [1] = test: Locomotor stimulant and depressant effects in mice; settings: i.p.
[2] = system: New Zealand white rabbits; test: Intraocular pressure (IOP) after topical application to the rabbit eye; format: in vivo; settings: for IOP: mean ± S.E.
Swiss-Webster mice [3] = test: H1 receptor antagonist (triprolidine) interaction study, locomotor activity in mice; settings: mice pretreated with triprolidine 20 min before the test compound
[4] = system: New Zealand white rabbits; test: Pupil diameter / mydriasis after topical application to the rabbit eye; format: in vivo; settings: for Pupil Diameter: mean ± S.E.
Procedure: These diastereomers were administered topically as either 1% or 2% solutions in buffered saline. Pupillary diameter and IOP were measured in all animals over a six hour time period during the day to minimize diurnal variations in IOP and pupil diameter.
The experiments were performed on adult male New Zealand white rabbits weighing 3.0–6.0 kg. All rabbits were caged individually and maintained on a 12 hr/12 hr light/dark schedule with free access to food and water. All animal procedures were in conformity with the ARVO Resolution on the Use and Care of Animals in Research. All treated rabbits had served as controls by having received a saline treatment on a different day.
Only one eye received drug treatment. The contralateral eye served as a control. Saline (or PBS) and drug treated rabbits were treated and observed simultaneously. A single dose was given at time zero and IOP and pupil diameter measured at −1.0, −0.5, 0.5, 1, 3 and 5 hrs post-treatment.
Pupil diameter was measured visually at the point of the greatest horizontal diameter with a transparent millimeter ruler. All measurements were made under the identical ambient lighting conditions.
Mean and Standard Error values were used to construct time-response and dose-response curves for the treated and contralateral eye of research rabbits. The data were analyzed statistically by an analysis of variance and a Bonferoni's test for significance. P<0.05 was the accepted level of significance.

[5] = — denotes absence of significant effect
[6] = 1% topical, drug treated eye (T), 0.5 hr
[7] = 1% topical, drug treated eye (T), 1 hr
[8] = 1% topical, drug treated eye (T), 3 hr
[9] = 1% topical, drug treated eye (T), 5 hr
[10] = 1% topical, drug treated eye (T), −0.5 hr (pre-treatment)
[11] = 1% topical, drug treated eye (T), −1 hr (pre-treatment)
[12] = 1% topical, untreated contralateral eye (U), 0.5 hr
[13] = 1% topical, untreated contralateral eye (U), 1 hr
[14] = 1% topical, untreated contralateral eye (U), 3 hr
[15] = 1% topical, untreated contralateral eye (U), 5 hr
[16] = 1% topical, untreated contralateral eye (U), −0.5 hr (pre-treatment)
[17] = 1% topical, untreated contralateral eye (U), −1 hr (pre-treatment)
[18] = 2% topical, drug treated eye (T), 0.5 hr
[19] = 2% topical, drug treated eye (T), 1 hr
[20] = 2% topical, drug treated eye (T), 3 hr
[21] = 2% topical, drug treated eye (T), 5 hr
[22] = 2% topical, drug treated eye (T), −0.5 hr (pre-treatment)
[23] = 2% topical, drug treated eye (T), −1 hr (pre-treatment)
[24] = 2% topical, untreated contralateral eye (U), 0.5 hr
[25] = 2% topical, untreated contralateral eye (U), 1 hr
[26] = 2% topical, untreated contralateral eye (U), 3 hr
[27] = 2% topical, untreated contralateral eye (U), 5 hr
[28] = 2% topical, untreated contralateral eye (U), −0.5 hr (pre-treatment)
[29] = 2% topical, untreated contralateral eye (U), −1 hr (pre-treatment)

(−)-norpseudoephedrine
Depression Time: 30-min period following injection in which the maximal depression occurred (Swiss-Webster mice [1]): 10 to 40 min | Stimulation Time: 30-min period following injection in which the maximal stimulant effect occurred (Swiss-Webster mice [1]): 40 to 70 min | locomotor depressant effects, time course (result in words) (Swiss-Webster mice [1]): locomotor depression at an earlier time (10–40 minutes following injection) and with a lower dose range | locomotor stimulant effects, time course (result in words) (Swiss-Webster mice [1]): Dose-dependent increases in locomotor activity of slower onset and longer duration | Depression Potency: dose resulting in ½ the maximal depressant effect (ID50) (Swiss-Webster mice [1]; [5]): 3.9 mg/kg | Stimulation Potency: dose resulting in ½ the maximal stimulant effect (ID50) (Swiss-Webster mice [1]; [5]): 51.1 mg/kg | effect on IOP (result in words) ([2]; 1% or 2% topical, rabbit): accompanying increase in IOP | IOP [2, 6]: 17 ± 1.0 mmHg | IOP [2, 7]: 17 ± 1.5 mmHg | IOP [2, 8]: 21 ± 1.6 mmHg | IOP [2, 9]: 18 ± 1.0 mmHg | IOP [2, 10]: 18 ± 1.6 mmHg | IOP [2, 11]: 17 ± 1.0 mmHg | IOP [2, 12]: 21 ± 1.0 mmHg | IOP [2, 13]: 18 ± 1.6 mmHg | IOP [2, 14]: 20 ± 1.9 mmHg | IOP [2, 15]: 23 ± 0.9 mmHg | IOP [2, 16]: 20 ± 1.7 mmHg | IOP [2, 17]: 17 ± 1.5 mmHg | IOP [2, 18]: 15 ± 0.5 mmHg | IOP [2, 19]: 18 ± 0.7 mmHg | IOP [2, 20]: 18 ± 1.1 mmHg | IOP [2, 21]: 18 ± 1.4 mmHg | IOP [2, 22]: 15 ± 0.9 mmHg | IOP [2, 23]: 16 ± 1.9 mmHg | IOP [2, 24]: 16 ± 1.2 mmHg | IOP [2, 25]: 19 ± 1.2 mmHg | IOP [2, 26]: 22 ± 1.5 mmHg | IOP [2, 27]: 21 ± 1.1 mmHg | IOP [2, 28]: 17 ± 0.7 mmHg | IOP [2, 29]: 16 ± 1.0 mmHg | effect of triprolidine pretreatment on stimulant or depressant effects (Swiss-Webster mice [3]): Significant effects for pretreatment with triprolidine | mydriasis / pupil diameter (result in words) ([4]; 1% or 2% topical, rabbit): significant mydriasis | Mydriatic Responses, TREATED EYE ([4]; 1% topical): + (+ = 0–2 mm change) | Mydriatic Responses, UNTREATED EYE ([4]; 1% topical): + (+ = 0–2 mm change) | Pupil Diameter [4, 6]: 6 ± 0.2 mm | Pupil Diameter [4, 7]: 6 ± 0.2 mm | Pupil Diameter [4, 8]: 6 ± 0.2 mm | Pupil Diameter [4, 9]: 6 ± 0.2 mm | Pupil Diameter [4, 10]: 5 ± 0.2 mm | Pupil Diameter [4, 11]: 5 ± 0.2 mm | Pupil Diameter [4, 12]: 6 ± 0.2 mm | Pupil Diameter [4, 13]: 6 ± 0.2 mm | Pupil Diameter [4, 14]: 6 ± 0.2 mm | Pupil Diameter [4, 15]: 6 ± 0.2 mm | Pupil Diameter [4, 16]: 5 ± 0.2 mm | Pupil Diameter [4, 17]: 5 ± 0.2 mm | Mydriatic Responses, TREATED EYE ([4]; 2% topical): ++ (++ = 2–4 mm change) | Mydriatic Responses, UNTREATED EYE ([4]; 2% topical): ++ (++ = 2–4 mm change) | Pupil Diameter [4, 18]: 9 ± 0.4 mm | Pupil Diameter [4, 19]: 9 ± 0.4 mm | Pupil Diameter [4, 20]: 9 ± 0.4 mm | Pupil Diameter [4, 21]: 9 ± 0.4 mm | Pupil Diameter [4, 22]: 6 ± 0.4 mm | Pupil Diameter [4, 23]: 6 ± 0.4 mm | Pupil Diameter [4, 24]: 9 ± 0.4 mm | Pupil Diameter [4, 25]: 9 ± 0.4 mm | Pupil Diameter [4, 26]: 9 ± 0.4 mm | Pupil Diameter [4, 27]: 9 ± 0.4 mm | Pupil Diameter [4, 28]: 6 ± 0.4 mm | Pupil Diameter [4, 29]: 6 ± 0.4 mm
